Patent publication US20200345637A1, “SUSPENSION COMPOSITIONS OF MULTI-TARGET INHIBITORS” (AIVIVA BIOPHARMA, INC., priority 2018, published 2020)
In brackets after ≈: the same amount, converted by molar mass. Several values for one entry are separate records, joined by “and”; a condition that tells them apart may be missing. Identical values can stand only once. Like-named read-outs stand apart in the source and are kept apart here.

Key:
[1] = Aqueous solubility of multi-target inhibitors; assay type: physicochemical; settings: for solubility: aqueous (not further specified)
Excerpt: Non-limiting examples of the useful multi-target inhibitors and their physicochemical forms are given in Table 1 with aqueous solubility information.

[2] = Suspension physical testing: particle size, pH, osmolality, syringeability; assay type: physicochemical; set-up: API Raw Material PSD D50 / Formulated Suspension Particle size distribution D50 / API Raw Material PSD D90 / Formulated Suspension Particle size distribution D90: unit not given here; settings: for Formulated Suspension Syringeability: needle gauge passed
Excerpt: (§1) Examples 1-3 depict the results of physical testing of some subject formulations.

[3] = Terminal sterilization and stability assay of formulated suspension; assay type: physicochemical; settings: for Assay (% of labeled claim) of Formulated Suspension, 4 months (40° C./75% RH) / Assay (% of labeled claim) of Formulated Suspension, 6 weeks (40° C./75% RH) / Assay (% of labeled claim) of Formulated Suspension, Initial: Gamma irradiation
Excerpt: as §1

[4] = system: linear incision wound sites; assay: Intradermal injection along linear incision wounds, histological evaluation; assay type: in vivo, minipigs; settings: for granulation tissue formation compared to vehicle treated control wounds / presence of myofibroblasts compared to vehicle treated control wounds: 2% suspension (sorafenib 1% suspension); for SMA staining / dermis fibrin / dermis fibroplasia / dermis provisional matrix / epidermis hyperplasia / inflammation / subcutis fibroplasia / subcutis mixed cell infiltrate: microscopic grade over 29 days
Experimental: The purpose of this study was to evaluate the suspension formulation when administered via intradermal injection with axitinib, nintedanib, sorafenib, and lenvatinib to the dorsal skin along linear incisions of minipigs.
Four male minipigs were dosed. Animals were dosed once via intradermal injection along the edges of each of 10 wound sites for each animal (5 wounds on each side of the dorsum [perpendicular to the spine], approximately 3 cm in length and 3 cm distance from the spine). Axitinib, nintedanib, lenvatinib, and the vehicle control article were administered via eight 0.1 mL intradermal injections around each respective wound site (one injection/cm on both sides of the wound), for a total volume of 0.8 mL/wound site. Sorafenib was administered via the same method at a volume of 0.2 mL/injection, for a total volume of 1.6 mL/wound site. The vehicle control article was Vehicle for Test Articles axitinib, nintedanib, lenvatinib, and sorafenib.
A generalized measure of inflammation, including inflammatory cell infiltrate, fibrin deposition, fibroplasia, epithelial hyperplasia and areas of tissue necrosis were assessed microscopically. […] For test agent treated wounds, all were graded as slight on Day 4, and there was no consistent difference over time as compared to the control group.

[5] = rabbit, in vivo
Experimental: (§2) This study evaluated the local tolerance of vehicle, axitinib, pirfenidone, sorafenib and lenvatinib and ocular distribution of axitinib, sorafenib and lenvatinib (0.3% w/w) when administered by topical ocular instillation in the eyes of New Zealand white rabbits (n=6 per group). […] On Dosing Day 5, the animals were sacrificed and eyes were enucleated. Ocular and plasma concentrations of select compounds were measured by LC-MS/MS.

[6] = rat, in vivo
Experimental: (§3) This study investigated the pharmacokinetics and distribution of axitinib, sorafenib, pirfenidone, and riociguat after intraprostate injections in Wistar rats (n=6-7 per treatment group). Axitinib, sorafenib and riociguat, as 1% w/w suspension, and pirfenidone as 2.5% suspension were administered as single intraprostate injection (a total of 0.2 mL) on Days 15 and 29 in this 42-day study.

[7] = systemic; literature or US label; cited from earlier work
[8] = Skin pharmacokinetics after single intradermal injection in minipigs; settings: over 28 days
Experimental: Pharmacokinetics of axitinib and nintedanib was investigated after a single intradermal injection of 0.1% and 1% suspensions to the dorsum of Yucatan minipigs. The dosing volume was 0.1 mL for each injection. Concentrations of drugs in the epidermis and dermis over 28 days at the injection site and at 2 cm away from the injection site were measured using LCMS/MS method.

[9] = Pharmacokinetics and distribution after intraprostate injections in rats (Example 8); settings: for Plasma concentrations Mean: intraprostate injection
Experimental: as §3

[10] = Local tolerance and ocular distribution, topical instillation three times daily for 5 days
Experimental: as §2

[11] = two weeks after the second biweekly intraprostate injection

Row | Compound | solubility [1] | API Raw Material PSD D50 [2] | API Raw Material PSD D90 [2] | Formulated Suspension Osmolality [2] | Formulated Suspension Particle size distribution D50 [2] | Formulated Suspension Particle size distribution D90 [2] | Formulated Suspension pH [2] | Formulated Suspension Syringeability [2] | Assay (% of labeled claim) of Formulated Suspension, 4 months (40° C./75% RH) [3] | Assay (% of labeled claim) of Formulated Suspension, 6 weeks (40° C./75% RH) [3] | Assay (% of labeled claim) of Formulated Suspension, Initial ([3]; initial) | granulation tissue formation compared to vehicle treated control wounds [4] | presence of myofibroblasts compared to vehicle treated control wounds [4] | SMA staining [4] | dermis fibrin [4] | dermis fibroplasia [4] | dermis provisional matrix [4] | epidermis hyperplasia [4] | inflammation [4] | Prostate concentrations Mean [9, 11] | other results
1 | CNC(=O)c1ccccc1Sc1ccc2c(/C=C/c3ccccn3)n[nH]c2c1 [Axitinib] | 2 µg/mL (≈ 5.17 µM) | D50: 5.5 | D90: 9.9 | 206 mOsm/kg | D50: 5.8 | D90: 15.6 | 7.6 | Pass 25G | 95.2 % of labeled claim and 100.9 % of labeled claim | 97.8 % of labeled claim and 98.5 % of labeled claim | 102.0 % of labeled claim and 100.7 % of labeled claim | delay in granulation tissue formation | prolonged presence of myofibroblasts | minimal to moderate | slight to moderate | none to slight | marked to moderate | minimal to slight | slight to moderate | 718 µg/g | Assay (% of labeled claim) of Formulated Suspension, 4 months (40° C./75% RH) (bottom) ([3]; Autoclave, bottom, tested at 3 months instead of 4 months, 40° C./75% RH): 103.2 % of labeled claim; Assay (% of labeled claim) of Formulated Suspension, Initial (bottom) ([3]; Autoclave, initial, bottom): 100.1 % of labeled claim; Assay (% of labeled claim) of Formulated Suspension, Initial (top) ([3]; Autoclave, initial, top): 98.7 % of labeled claim; Assay (% of labeled claim) of Formulated Suspension, 4 months (40° C./75% RH) (top) ([3]; Autoclave, top, tested at 3 months instead of 4 months, 40° C./75% RH): 101.2 % of labeled claim; subcutis fibroplasia [4]: none to moderate; subcutis mixed cell infiltrate [4]: moderate to minimal; concentrations in the choroid and retina [5]: significant concentrations; drug concentrations in anterior tissues of conjunctiva, sclera and cornea [5]: high drug concentrations; drug concentration in prostate [6]: remained high; drug release from prostate into systemic circulation [6]: prolonged drug release; terminal plasma half-life in man [7]: 2 to 5 h; mean concentration in the dermis, 2 cm away from the injection site ([8]; 0.1% intradermal injection): 1.2-8 ng/gm; mean concentration in the epidermis, 2 cm away from the injection site ([8]; 0.1% intradermal injection): 4.5-55.2 ng/gm; mean concentration in the dermis, 2 cm away from the injection site ([8]; 1% intradermal injection): 2.9-150 ng/gm; mean concentration in the epidermis, 2 cm away from the injection site ([8]; 1% intradermal injection): 42.3-723 ng/gm; Plasma concentrations Mean ([9]; Study Day 15, 24 h): 1.72 ng/mL; Plasma concentrations Mean ([9]; Study Day 29, 24 h): 1.49 ng/mL; Plasma concentrations Mean ([9]; Study Day 42, 0 h): 0.33 ng/mL; concentration at 5 day of dosing ([10]; New Zealand White, rabbit, plasma, topical, 35 μl eyedrop of 0.3% w/w to the right eye, three times daily): 0.29 ng/mL
2 | Cc1ccc(=O)n(-c2ccccc2)c1 [Pirfenidone] | 3000 µg/mL (≈ 16200 µM) | D50: 57 | D90: 74 | 312 mOsm/kg | D50: 44 | D90: 72 | 7.6 | Pass 23G | 91.5 % of labeled claim and 94.9 % of labeled claim | 89.9 % of labeled claim and 95.7 % of labeled claim | 90.9 % of labeled claim and 97.2 % of labeled claim |  |  |  |  |  |  |  |  | 0.014 µg/g | Plasma concentrations Mean ([9]; Study Day 15, 24 h): 0.381 ng/mL; Plasma concentrations Mean ([9]; Study Day 29, 24 h): 0.454 ng/mL; Plasma concentrations Mean ([9]; Study Day 42, 0 h): BLQ
3 | COC(=O)N(C)c1c(N)nc(-c2nn(Cc3ccccc3F)c3ncccc23)nc1N [Riociguat] | 8 µg/mL (≈ 18.9 µM) | D50: 16 | D90: 29 | 201 mOsm/kg | D50: 9 | D90: 17 | 7.6 | Pass 27G | 99.9 % of labeled claim and 99.7 % of labeled claim | 98.7 % of labeled claim and 98.0 % of labeled claim | 101.9 % of labeled claim and 100.6 % of labeled claim |  |  |  |  |  |  |  |  |  | Prostate concentrations Mean ([6]; male, Wistar, 2 weeks after the second injection): 492 µg/g; drug concentration in prostate [6]: remained high; drug release from prostate into systemic circulation [6]: prolonged drug release
4 | CNC(=O)c1cc(Oc2ccc(NC(=O)Nc3ccc(Cl)c(C(F)(F)F)c3)cc2)ccn1.Cc1ccc(S(=O)(=O)O)cc1 [Sorafenib Hemi Tosylate] |  | D50: 18 | D90: 39 | 216 mOsm/kg | D50: 11 | D90: 20 | 7.3 | Pass 27G | 99.9 % of labeled claim and 99.6 % of labeled claim | 100.7 % of labeled claim and 100.4 % of labeled claim | 98.9 % of labeled claim and 101.6 % of labeled claim | delay in granulation tissue formation | prolonged presence of myofibroblasts | slight to minimal | minimal to none | minimal to slight | slight to none | none | moderate to minimal | 892 µg/g | Aqueous Solubility [1]: 6 µg/mL; subcutis fibroplasia [4]: minimal to moderate; subcutis mixed cell infiltrate [4]: slight to marked; drug release from prostate into systemic circulation ([9]; after single intraprostate injections): prolonged drug release; drug concentration in prostate [9, 11]: remained high; concentrations in the choroid and retina ([10]; 0.3% w/w topical instillation): significant concentrations; drug concentrations in anterior tissues of conjunctiva, sclera and cornea ([10]; 0.3% w/w topical instillation): high drug concentrations; plasma concentrations, mean (±SD) ([10]; Day 5 of dosing, 0.3% w/w 35 μl eyedrop three times daily): 5.09 (±1.27) ng/mL
5 | CCN(CC)CCNC(=O)c1c(C)[nH]c(/C=C2\C(=O)Nc3ccc(F)cc32)c1C [Sunitinib] | 7 µg/mL (≈ 17.6 µM) | D50: 25 | D90: 52 | 201 mOsm/kg | D50: 12 | D90: 26 | 7.6 | Pass 25G | 100.0 % of labeled claim and 95.6 % of labeled claim | 98.9 % of labeled claim and 96.5 % of labeled claim | 96.7 % of labeled claim and 95.1 % of labeled claim |  |  |  |  |  |  |  |  |  | 
6 | CNC(=O)c1cc(Oc2ccc(NC(=O)Nc3ccc(Cl)c(C(F)(F)F)c3)c(F)c2)ccn1 [regorafenib, Regorafenib] |  |  |  |  |  |  |  |  |  |  |  |  |  |  |  |  |  |  |  |  | terminal plasma half-life in man [7]: 28 h
